Publication PMC3152585 (Dental materials : official publication of the Academy of …, 2011)
≈ marks a conversion by molar mass, not a printed value. Where “and” joins values, the source holds several entries; their conditions need not be identical. Equal values may be shown once. Marks after values point to notes of the source that are not given here. Values belong to the molecule of their own block, whether it stands above or below them.

How the values were obtained:
[1] = system: matrix-bound endogenous MMPs of dentin; assay: Loss of dry mass of demineralized dentin beams over 30 days; format: biochemical, human; conditions: for Loss of dry mass (%): mean ± SEM, n=10, buffer control -21.02; for % Inhibition (loss of dry mass): vs buffer control
[2] = molecular target: recombinant human MMP-9 (rhMMP-9) (Homo sapiens, UniProt P14780); assay: Sensolyte Generic MMP colorimetric assay with soluble rhMMP-9; conditions: for IC50 (moles/L) for rhMMP-9: from regression of percent inhibition vs alcohol concentration; for IC50 (moles/L) for rhMMP-9 / % Inhibition of soluble rhMMP-9: mean ± SEM, n=5; for % Inhibition of soluble rhMMP-9: alcohol 4.28 M
Sequence of recombinant human MMP-9 (rhMMP-9) (P14780 107-707 limits assumed): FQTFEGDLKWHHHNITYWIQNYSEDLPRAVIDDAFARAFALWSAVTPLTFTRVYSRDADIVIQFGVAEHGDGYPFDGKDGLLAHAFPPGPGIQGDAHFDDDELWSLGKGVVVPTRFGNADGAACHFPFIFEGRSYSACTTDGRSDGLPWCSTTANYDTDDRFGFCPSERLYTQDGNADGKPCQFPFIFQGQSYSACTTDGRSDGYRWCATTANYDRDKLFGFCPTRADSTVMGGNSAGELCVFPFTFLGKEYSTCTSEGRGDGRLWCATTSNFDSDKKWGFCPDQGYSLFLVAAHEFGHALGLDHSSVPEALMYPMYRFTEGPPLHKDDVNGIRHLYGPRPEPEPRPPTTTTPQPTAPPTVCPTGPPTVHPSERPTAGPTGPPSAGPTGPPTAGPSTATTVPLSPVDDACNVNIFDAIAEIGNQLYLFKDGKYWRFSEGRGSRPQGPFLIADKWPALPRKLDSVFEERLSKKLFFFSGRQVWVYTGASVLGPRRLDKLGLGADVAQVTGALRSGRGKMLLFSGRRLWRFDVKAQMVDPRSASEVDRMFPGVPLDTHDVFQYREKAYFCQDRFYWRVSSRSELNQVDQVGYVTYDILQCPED

[3] = system: matrix-bound endogenous MMPs of dentin; assay: Solubilization of collagen peptides; format: biochemical, human; conditions: 30 days, vs buffer control
[4] = system: MMP-2; conditions: 5 wt% monomeric HEMA, PAGE gels; cited from earlier work
[5] = physchem; conditions: aqueous buffer
[6] = read-out: % Inhibition of soluble rhMMP-9

SMILES: OCCCO [1,3-propanediol]
- Loss of dry mass (%) ([1]; alcohol 4.28 M): -3.22 ± 0.31% (10)^A

- inhibition at 170000 µM [2, 6]: 28.3 ± 0.4%
SMILES: CCCCCCO [1-hexanol]

- IC50 (moles/L) for rhMMP-9 [2]: 0.3 ± 0.22%^b moles/L
- inhibition at 170000 µM [2, 6]: 25.4 ± 1.21%
SMILES: CCCCCCCCO [1-octanol]

- inhibition at 860000 µM [2, 6]: 28.5 ± 0.54%
SMILES: CCCCCO [1-pentanol]

- % Inhibition of soluble rhMMP-9 [2]: 79.7 ± 0.18%^F
- IC50 (moles/L) for rhMMP-9 [2]: 2.7 moles/L and 2.7 ± 0.13%^d moles/L
SMILES: CCCO [1-propanol]
- % Inhibition (loss of dry mass) ([1]; alcohol 4.28 M): 80.2%
- % Inhibition (solubilization of HYP) ([3]; alcohol 4.28 M): 78.2%

- % Inhibition of soluble rhMMP-9 [2]: 78.7 ± 0.94%^F
- IC50 (moles/L) for rhMMP-9 [2]: 0.5 ± 0.04%^b moles/L
SMILES: CCC(C)O (stereo not drawn) [2-butanol]
- % Inhibition (loss of dry mass) ([1]; alcohol […]): 80.2%
- % Inhibition (solubilization of HYP) ([3]; alcohol […]): 82.9%

- IC50 (moles/L) for rhMMP-9 [2]: 3.0 ± 0.18%^d moles/L
- inhibition at 170000 µM [2, 6]: 13.7 ± 2.33%
SMILES: CCCCCC(C)O (stereo not drawn) [2-heptanol]

- IC50 (moles/L) for rhMMP-9 [2]: 1.6 ± 0.09%^c moles/L
- inhibition at 170000 µM [2, 6]: 13.2 ± 0.67%
SMILES: CCCCC(C)O (stereo not drawn) [2-hexanol]

- IC50 (moles/L) for rhMMP-9 [2]: 2.7 ± 0.18%^d moles/L
- inhibition at 170000 µM [2, 6]: 21.5 ± 0.63%
SMILES: CCCCCCC(C)O (stereo not drawn) [2-octanol]

- % Inhibition of soluble rhMMP-9 [2]: 52.7 ± 0.18%^D
- IC50 (moles/L) for rhMMP-9 [2]: 4.4 ± 0.13%^e moles/L
SMILES: CC(C)O [2-propanol]

SMILES: CCCCC(O)CC (stereo not drawn) [3-heptanol]
- IC50 (moles/L) for rhMMP-9 [2]: 0.5 ± 0.04%^b moles/L
- inhibition at 170000 µM [2, 6]: 17.1 ± 0.54%

- IC50 (moles/L) for rhMMP-9 [2]: 0.4 ± 0.04%^b moles/L
- inhibition at 170000 µM [2, 6]: 35.1 ± 1.16%
SMILES: CCCC(O)CC (stereo not drawn) [3-hexanol]

- IC50 (moles/L) for rhMMP-9 [2]: 1.1 ± 0.04%^c moles/L
- inhibition at 170000 µM [2, 6]: 17.7 ± 0.27%
SMILES: CCCCC(O)CCC (stereo not drawn) [4-octanol]

SMILES: C=C(C)C(=O)OCCO [HEMA, 2-hydroxyethylmethacrylate]
- IC50 [2]: 100 ± 90 mM
- Inhibition of rhMMP-9 ([2]; 2.2 vol% HEMA, data not shown): 98%
- Inhibition of MMP-9 relative to the same concentration of ethanol ([2]; compared to ethanol): nineteen times more
- Inhibition of MMP-2 [4]: about 80%
- solubility [5]: 4280 mM (≈ 557 mg/mL)
- % Inhibition (loss of dry mass) ([1]; 0.86 M): 80.7%
- % Inhibition (loss of dry mass) ([1]; […]): 79.1%
- % Inhibition (loss of dry mass) ([1]; alcohol 4.28 M): 80.8%
- % Inhibition (solubilization of HYP) ([3]; 0.86 M): 88.1%
- % Inhibition (solubilization of HYP) ([3]; […]): 83.6%
- % Inhibition (solubilization of HYP) ([3]; alcohol 4.28 M): 85.6%

- % Inhibition of soluble rhMMP-9 [2]: 14.3 ± 2.06%^A
- IC50 (moles/L) for rhMMP-9 [2]: 19.6 ± 0.36%^a moles/L
SMILES: CCO [ethanol]

SMILES: CC(C)(C)O [tert-butanol]
- Loss of dry mass (%) ([1]; alcohol 4.28 M): -3.52 ± 0.28% (10)^A
- % Inhibition (loss of dry mass) ([1]; alcohol 4.28 M): 83.3%
